From patent publication US20120107323A1, “KINASE PROTEIN BINDING INHIBITORS” (University of Florida, priority 2009, published 2012)

Tests used:
[1] = tested on: C8161 subcutaneous tumor; assay: C8161 melanoma xenograft in nude mice; format: in vivo
Method: Kinase Profiler Screening: Kinase specificity screening was performed with Invitrogen's SelectScreen® Kinase Profiling Services http://www.invitrogen.com/site/us/en/home/Products-and-Services/Services/Discoverv-Research/SelectScreen-Profiling-Service/SelectScreen-Kinase-Profiling-Service.html. The screening was performed with 1 μM compound, INT2-31, 10 μM ATP, and kinase substrates against ten recombinant kinases according to Z′-LYTET™ Kinase Assay. For PI3 kinase activity, 100 μM ATP, and kinase substrate were utilized with the Invitrogen Adapta® Universal Kinase Assay protocol. Tumor Growth in Nude Mice in vivo: Six week old athymic, female nude mice were purchased from Harlan Laboratory. The mice were maintained in the animal facility, and all experiments were performed in compliance with NIH animal-use guidelines and under an IACUC approved protocol. Melanoma cells were injected, 5×10^6 cells, subcutaneously. When the tumor size reached 100 mm^3, the INT2-31 was introduced by intraperitoneal injection at a dose of 15 mg/kg daily for 21 days. Tumor diameters were measured with calipers, and tumor volume in mm^3 was calculated using the formula [(width)^2×length]/2. At the end of experiment, tumor weight and volume were determined.
For the melanoma study, the University of Florida IACUC approved the following protocol (IACUC Study #200801077). Melanoma cells were injected, 5×10^6 cells, subcutaneously. When the tumor size reached 100 mm^3, the INT2-31 was introduced by intraperitoneal injection at a dose of 15 mg/kg daily. Tumor diameters were measured with calipers, and tumor volume in mm^3 was calculated using the formula [(width)^2×length]/2. At the end of experiment, tumor weight and volume were determined.
Immunohistochemistry: Xenograft tumor tissue was fixed in 10% formalin and embedded in paraffin. For Ki-67 staining, samples underwent deparaffinization and antigen retrieval and incubated with the primary antibody, Ki-67 (Dako M7240), at 1:200 concentration overnight at 4° C. The tissues were stained with the chromogen DAB and counterstained with hematoxylin and 1% TBS.
For assessment of apoptotic cells, staining was performed utilizing the Dead End™ Calorimetric TUNEL System (Promega, Madison, Wis.) according to instructions from the manufacturer. Percent apoptotic cells were determined from counting at least 400 cells in a high power field.

[2] = tested on: KYSE180 esophageal cancer cells; assay: Cell viability (MTT), KYSE180; format: cell-based; settings: Homo sapiens, KYSE-180; KYSE180, 72 hours; read-out: IC50 of INT2-31, cell viability
Method: Cell viability (MTT) and CFSE Proliferation assay: Cells were plated in 96-well plates and let adhere overnight. After cell treatment, cell viability was measured by 3-(4,5-dimethylthiazol-2-yl)-2,5-diphenyl tetrazolium bromide (MTT) assay (CellTiter 96® Aqueous, Promega, Madison, Wis.).
Cell viability and detachment assays: After cells were treated with siRNA transfection, cell viability was measured by 3-(4,5-dimethylthiazol2-yl)-2,5-diphenyl tetrazolium bromide (MTT) assay (CellTiter 96® AQueous, Promega, Madison, Wis.). Briefly, 20 μl of the tetrazolium compound was added to each well. The cells were then incubated at 37° C. for 1 h. The plate was read at 490 nm with a plate reader to determine the viability. In detachment assays, detached and attached cells were harvested separately and counted in a hemocytometer. The percentage of detachment was calculated by dividing the number of detached cells by the total number of cells. Apoptosis assays: After treatment, attached and detached cells were collected, counted and prepared for terminal uridine deoxynucleotidyl transferase (TUNEL) assay by utilizing an APO-BRDU kit (BD Pharmingen, San Diego, Calif.) according to the manufacturer's instructions. Stained cells were analyzed with a fluorescence-activated cell sorting-Calibur flow cytometer (BD Biosciences). […] Apoptotic cells were also analyzed by Hoechst staining. […]

CSc1ncnc2c1ccn2C1O[C@H](COP(=O)(O)O)[C@@H](O)[C@H]1O (stereo partly drawn) [INT2-31, 4-(Methylthio)-7-(5-O-phosphono-D-ribofuranosyl)-{7H-Pyrrolo[2,3-d]pyrimidine}]
phosphorylation of AKT in tumor ([1]; 15 mg/kg vs PBS control, Western blot): decrease in phosphorylation of AKT
subcutaneous tumor growth compared to PBS control ([1]; C8161, 15 mg/kg daily intraperitoneal, 21 days, p<0.05): significant decrease
body weights between animals in each group ([1]; C8161 and A375 xenograft mice, 15 mg/kg): no significant difference
intensity of Ki67 staining ([1]; C8161 tumors, 15 mg/kg vs PBS): significantly decreased
percent of cells reactive to Ki67 ([1]; C8161 tumors, 15 mg/kg vs PBS): significantly decreased
percent of cells undergoing apoptosis (TUNEL) ([1]; C8161 tumors, 15 mg/kg vs control, p<0.05): significantly increased
densitometry, mean ratio of IGF-1R to FAK in tumor ([1]; C8161 tumors, immunoprecipitation of FAK, PBS 0.98+/−0.11, p=0.09): 0.78+/−0.16
IC50 [2]: 19.8 µM
